Read-outs that look alike come from different tables or passages of the source.
Molecular target: T1, F508delCFTR (Homo sapiens, UniProt P13569, DEL508-508)
T1 construct: expressed in transfected cells; host or cells: CFBE41o- human lung-derived epithelial cells (CFBE4lo-F508delCFTR-HRP), doxycycline-inducible
Assay: Cell Surface Expression-Horse Radish Peroxidase (CSE-HRP) Assay;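 on Maximum % activity (with co-corrector): co-corrector and positive control are both the same reference corrector at 2 µM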;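 on Maximum % activity (without co-corrector): percent of the 2 µM on-plate positive control corrector response above DMSO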
Format: cell-based
Details: for Emax / Maximum % activity (with co-corrector): maximum at any tested concentration, normalized to on-plate positive control; for Emax: read-out: Maximum % activity (without co-corrector)

[1] = test compound without co-corrector
[2] = test compound without co-corrector, read-out: EC50 (without co-corrector)
[3] = with co-corrector (2 μM of 3-[(2R,4R)-4-({[1-(2,2-difluoro-1,3-benzodioxol-5-yl)cyclopropyl]carbonyl}amino)-7-methoxy-3,4-dihydro-2H-chromen-2-yl]benzoic acid)
[4] = with co-corrector (2 μM of 3-[(2R,4R)-4-({[1-(2,2-difluoro-1,3-benzodioxol-5-yl)cyclopropyl]carbonyl}amino)-7-methoxy-3,4-dihydro-2H-chromen-2-yl]benzoic acid), read-out: EC50 (with co-corrector)

T1 sequence (P13569 with tags, fused parts or gaps DEL508-508): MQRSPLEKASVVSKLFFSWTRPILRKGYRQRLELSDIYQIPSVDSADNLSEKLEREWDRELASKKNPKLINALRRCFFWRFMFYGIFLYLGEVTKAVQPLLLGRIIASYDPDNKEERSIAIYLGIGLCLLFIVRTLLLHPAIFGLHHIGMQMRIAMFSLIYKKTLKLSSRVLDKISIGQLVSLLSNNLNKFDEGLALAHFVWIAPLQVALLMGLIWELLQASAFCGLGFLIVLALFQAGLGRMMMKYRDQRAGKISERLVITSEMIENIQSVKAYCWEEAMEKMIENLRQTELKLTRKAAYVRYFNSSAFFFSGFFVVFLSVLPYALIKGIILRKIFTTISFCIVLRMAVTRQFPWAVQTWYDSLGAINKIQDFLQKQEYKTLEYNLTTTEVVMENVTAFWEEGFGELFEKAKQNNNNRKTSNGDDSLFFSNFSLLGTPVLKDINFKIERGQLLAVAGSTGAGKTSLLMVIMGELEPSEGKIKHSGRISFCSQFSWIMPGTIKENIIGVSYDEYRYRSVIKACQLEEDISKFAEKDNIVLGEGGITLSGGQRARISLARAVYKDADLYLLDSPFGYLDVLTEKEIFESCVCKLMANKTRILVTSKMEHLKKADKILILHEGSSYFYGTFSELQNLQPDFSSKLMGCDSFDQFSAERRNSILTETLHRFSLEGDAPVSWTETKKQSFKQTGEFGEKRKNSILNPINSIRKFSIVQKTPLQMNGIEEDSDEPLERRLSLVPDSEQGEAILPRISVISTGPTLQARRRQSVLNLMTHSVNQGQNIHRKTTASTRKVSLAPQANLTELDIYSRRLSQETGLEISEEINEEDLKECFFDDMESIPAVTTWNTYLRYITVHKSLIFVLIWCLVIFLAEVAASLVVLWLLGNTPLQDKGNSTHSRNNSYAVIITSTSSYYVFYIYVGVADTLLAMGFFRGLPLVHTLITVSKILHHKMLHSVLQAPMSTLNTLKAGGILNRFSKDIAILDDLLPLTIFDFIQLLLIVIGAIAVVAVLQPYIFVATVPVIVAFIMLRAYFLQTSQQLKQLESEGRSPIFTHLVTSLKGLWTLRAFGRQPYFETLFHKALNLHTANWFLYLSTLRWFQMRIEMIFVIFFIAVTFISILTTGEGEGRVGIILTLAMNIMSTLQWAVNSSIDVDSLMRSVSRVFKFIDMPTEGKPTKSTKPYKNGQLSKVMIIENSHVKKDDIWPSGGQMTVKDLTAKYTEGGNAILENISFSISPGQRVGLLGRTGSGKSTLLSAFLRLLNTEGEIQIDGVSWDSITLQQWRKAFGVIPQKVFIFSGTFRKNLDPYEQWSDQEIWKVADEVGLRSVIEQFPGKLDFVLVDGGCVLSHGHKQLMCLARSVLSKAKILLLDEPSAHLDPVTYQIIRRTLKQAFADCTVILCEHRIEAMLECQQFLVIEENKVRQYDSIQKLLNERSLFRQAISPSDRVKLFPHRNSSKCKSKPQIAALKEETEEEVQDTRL

Compound | Emax [1] | EC50 [2] | Maximum % activity (with co-corrector) [3] | EC50 [4]
C=CCCOC(=O)N1[C@H](C(=O)O)[C@@H](C(C)(C)C)[C@H](NCc2cc(C(C)(C)C)ccc2OC)[C@@H]1c1ccccc1 [II-387] | > 200% | 1000 to 10000 nM | +++ (≥350) | 1000 to 10000 nM
COC(=O)N1[C@H](C(=O)O)[C@@H](C(C)(C)C)[C@H](NCc2cc(C(C)(C)C)ccc2OC)[C@@H]1c1ccccc1 [II-388] | > 200% | 1000 to 10000 nM | +++ (≥350) | 1000 to 10000 nM
CC#CCOC(=O)N1[C@H](C(=O)O)[C@@H](C(C)(C)C)[C@H](NCc2cc(C(C)(C)C)ccc2OC)[C@@H]1c1ccccc1 [II-389] | 100 to 200% | 1000 to 10000 nM | +++ (≥350) | 1000 to 10000 nM
CCCOC(=O)N1[C@H](C(=O)O)[C@@H](C(C)(C)C)[C@H](NCc2cc(C(C)(C)C)ccc2OC)[C@@H]1c1ccccc1 [II-390] | > 200% | 1000 to 10000 nM | +++ (≥350) | 1000 to 10000 nM
C=CCOC(=O)N1[C@H](C(=O)O)[C@@H](C(C)(C)C)[C@H](NCc2cc(C(C)(C)C)ccc2OC)[C@@H]1c1ccccc1 [II-391] | > 200% | 1000 to 10000 nM | +++ (≥350) | 1000 to 10000 nM
COc1ccc(C(C)(C)C)cc1CN[C@H]1[C@H](C(C)(C)C)[C@@H](C(=O)O)N(C(=O)OCC(C)(C)C)[C@H]1c1ccccc1 [II-392] | > 200% | < 1000 nM | +++ (≥350) | < 1000 nM
COc1ccc(C(C)(C)C)cc1CN[C@@H]1[C@@H](C(C)(C)C)[C@@H](C(=O)O)N(C(=O)[C@H](OC)c2ccccc2)[C@H]1c1ccccc1 [II-393] | < 100% | 1000 to 10000 nM | ++ (≥150 and <350) | 1000 to 10000 nM
COC1(CN[C@H]2[C@H](C(C)(C)C)[C@@H](C(=O)O)N(C(=O)C3CCCCC3)[C@H]2c2ccccc2)CCCCC1 [II-394] | 100 to 200% | 1000 to 10000 nM | +++ (≥350) | 1000 to 10000 nM
COc1ccc(C(F)(F)F)cc1CN[C@@H]1[C@@H](C(C)(C)C)[C@@H](C(=O)O)N(C(=O)[C@H](OC)c2ccccc2)[C@H]1c1ccccc1 [II-395] | < 100% | 1000 to 10000 nM | ++ (≥150 and <350) | 1000 to 10000 nM
COc1ccc(C(C)(C)C)cc1CN[C@H]1[C@H](C(C)(C)C)[C@@H](C(=O)O)N(C(=O)[C@@H](OC)c2ccc(F)c(F)c2)[C@H]1c1ccccc1 [II-396] | 100 to 200% | 1000 to 10000 nM | +++ (≥350) | 1000 to 10000 nM
COc1ccc(C(F)(F)F)cc1CN[C@H]1[C@H](C(C)(C)C)[C@@H](C(=O)O)N(C(=O)C2CCc3cc(C)ccc3O2)[C@H]1c1ccccc1 (some centres unmarked) [II-397] | 100 to 200% | 1000 to 10000 nM | +++ (≥350) | < 1000 nM
COc1ccc(C(F)(F)F)cc1CN[C@H]1[C@H](C(C)(C)C)[C@@H](C(=O)O)N(C(=O)C2CCc3ccc(F)cc3O2)[C@H]1c1ccccc1 (some centres unmarked) [II-398] | < 100% | 1000 to 10000 nM | +++ (≥350) | 1000 to 10000 nM
COc1ccc(C(F)(F)F)cc1CN[C@H]1[C@H](C(C)(C)C)[C@@H](C(=O)O)N(C(=O)C(Oc2ccc(Cl)cc2)C(C)C)[C@H]1c1ccccc1 (some centres unmarked) [II-399] | 100 to 200% | < 1000 nM | +++ (≥350) | < 1000 nM
COc1ccc(C2(C#N)CC2)cc1CN[C@H]1[C@H](C(C)(C)C)[C@@H](C(=O)O)N(C(=O)C2CCCCC2)[C@H]1c1ccccc1 [II-400] | 100 to 200% | 1000 to 10000 nM | +++ (≥350) | 1000 to 10000 nM
COc1ccc(C(C)(C)C)cc1CN[C@H]1[C@H](C(C)(C)C)[C@@H](C(=O)O)N(C(=O)C2CCC(C)(C)C2)[C@H]1c1ccccc1 (some centres unmarked) [II-401] | > 200% | 1000 to 10000 nM | +++ (≥350) | < 1000 nM
COc1ccc(C(C)(C)C)cc1CN[C@H]1[C@H](C(C)(C)C)[C@@H](C(=O)O)N(C(=O)C2COc3c(cccc3OC)C2)[C@H]1c1ccccc1 (some centres unmarked) [II-402] | > 200% | 1000 to 10000 nM | +++ (≥350) | < 1000 nM
COc1cnc(C2CC3CCC2C3)cc1CN[C@H]1[C@H](C(C)(C)C)[C@@H](C(=O)O)N(C(=O)C2CCCCC2)[C@H]1c1ccccc1 (some centres unmarked) [II-403] | 100 to 200% | 1000 to 10000 nM | +++ (≥350) | 1000 to 10000 nM
COc1cnc(C2CCCCC2)cc1CN[C@H]1[C@H](C(C)(C)C)[C@@H](C(=O)O)N(C(=O)C2CCCCC2)[C@H]1c1ccccc1 [II-404] | < 100% | 1000 to 10000 nM | +++ (≥350) | 1000 to 10000 nM

Compound | Emax [1] | EC50 [2] | Maximum % activity (with co-corrector) [3] | EC50 [4]
COc1ncc(-c2ccccc2F)cc1CN[C@H]1[C@H](C(C)(C)C)[C@@H](C(=O)O)N(C(=O)C2CCCCC2)[C@H]1c1cccnc1N(C)C [II-405] | > 200% | 1000 to 10000 nM | +++ (≥350) | 1000 to 10000 nM
COc1ncc(-c2ccc(F)cc2F)cc1CN[C@H]1[C@H](C(C)(C)C)[C@@H](C(=O)O)N(C(=O)C2CCCCC2)[C@H]1c1cccnc1N(C)C [II-406] | 100 to 200% | < 1000 nM | +++ (≥350) | < 1000 nM
COc1cccc(OC)c1CN[C@H]1[C@H](C(C)(C)C)[C@@H](C(=O)O)N(C(=O)C2CCCCC2)[C@H]1c1ccccc1 [II-407] | 100 to 200% | 1000 to 10000 nM | +++ (≥350) | 1000 to 10000 nM
COc1ccc(C(F)(F)F)nc1CN[C@H]1[C@H](C(C)(C)C)[C@@H](C(=O)O)N(C(=O)C2CCCCC2)[C@H]1c1ccccc1 [II-408] | 100 to 200% | 1000 to 10000 nM | +++ (≥350) | 1000 to 10000 nM
COc1ncc(-c2ccc(F)cc2C)cc1CN[C@H]1[C@H](C(C)(C)C)[C@@H](C(=O)O)N(C(=O)C2CCCCC2)[C@H]1c1cccnc1N(C)C [II-409] | 100 to 200% | 1000 to 10000 nM | +++ (≥350) | < 1000 nM
COc1ncc(-c2ccc(C)cc2)cc1CN[C@H]1[C@H](C(C)(C)C)[C@@H](C(=O)O)N(C(=O)C2CCCCC2)[C@H]1c1cccnc1N(C)C [II-410] | 100 to 200% | < 1000 nM | +++ (≥350) | < 1000 nM
COc1ccc(C(C)(C)C)cc1CN[C@H]1[C@H](C(C)(C)C)[C@@H](C(=O)O)N(C(=O)C2=C(F)CCCC2)[C@H]1c1ccccc1 [II-411] | > 200% | 1000 to 10000 nM | +++ (≥350) | < 1000 nM
COc1ccc(C(C)(C)C)cc1CN[C@@H]1[C@@H](C(C)(C)C)[C@@H](C(=O)O)N(C(=O)C2CCCCC2)[C@H]1c1ccccc1 [II-412] | < 100% | 1000 to 10000 nM | ++ (≥150 and <350) | 1000 to 10000 nM
COc1ccc(C(F)(F)F)cc1CN[C@@H]1[C@@H](C(C)(C)C)[C@@H](C(=O)O)N(C(=O)C2CCCCC2)[C@H]1c1ccccc1 [II-413] | < 100% | 1000 to 10000 nM | ++ (≥150 and <350) | 1000 to 10000 nM
COc1ccc(C(C)(C)C)cc1CN[C@H]1[C@H](C(C)(C)C)[C@@H](C(=O)O)N(C(=O)C(Oc2ccccc2C)C(C)C)[C@H]1c1ccccc1 (some centres unmarked) [II-415] | > 200% | 1000 to 10000 nM | +++ (≥350) | < 1000 nM
COc1cnc(-c2ccc(C)cc2F)cc1CN[C@H]1[C@H](C(C)(C)C)[C@@H](C(=O)O)N(C(=O)C2CCCCC2)[C@H]1c1ccccc1 [II-416] | 100 to 200% | < 1000 nM | +++ (≥350) | < 1000 nM
COc1cnc(-c2ccccc2F)cc1CN[C@H]1[C@H](C(C)(C)C)[C@@H](C(=O)O)N(C(=O)C2CCCCC2)[C@H]1c1ccccc1 [II-417] | 100 to 200% | 1000 to 10000 nM | +++ (≥350) | 1000 to 10000 nM
COc1cccc(-c2cc(CN[C@H]3[C@H](C(C)(C)C)[C@@H](C(=O)O)N(C(=O)C4CCCCC4)[C@H]3c3ccccc3)c(OC)cn2)c1 [II-418] | < 100% | 1000 to 10000 nM | +++ (≥350) | 1000 to 10000 nM
COc1ccc(C(C)(C)C)cc1CN[C@H]1[C@H](C(C)(C)OC)[C@@H](C(=O)O)N(C(=O)OC(C)C)[C@H]1c1ccccc1 [II-419] | > 200% | 1000 to 10000 nM | +++ (≥350) | 1000 to 10000 nM
COCC1(c2ccc(OC)c(CN[C@H]3[C@H](C(C)(C)C)[C@@H](C(=O)O)N(C(=O)C4CCCCC4)[C@H]3c3ccccc3)c2)CC1 [II-420] | 100 to 200% | 1000 to 10000 nM | +++ (≥350) | 1000 to 10000 nM
COc1ncc(C2(C)CC2(F)F)cc1CN[C@H]1[C@H](C(C)(C)C)[C@@H](C(=O)O)N(C(=O)C2CCCCC2)[C@H]1c1ccccc1 (some centres unmarked) [II-422] | 100 to 200% | < 1000 nM | +++ (≥350) | < 1000 nM
COc1ncc(-c2ccccc2)cc1CN[C@H]1[C@H](C(C)(C)C)[C@@H](C(=O)O)N(C(=O)C2CCCCC2)[C@H]1c1ccccc1F [II-423] | 100 to 200% | < 1000 nM | +++ (≥350) | < 1000 nM
